Measured values as given in patent publication US7247705B2, “Proteins having glucose transporter activity” (Takeda Pharmaceutical Company Limited, priority 2000, dated 2007).

Experiments:
Type in all cases: cell-based
human SGLT homolog [1] = biological target: T1, human SGLT homolog (Homo sapiens, UniProt Q2M3M2, I269M); assay: α-methyl glucose uptake in CHO cell expressing the SGLT homolog; conditions: CHO cells, NaCl + 10 μM or 100 μM Phlorizin, one-hour incubation, FIG. 3
T1 construct: expressed in transfected cells
T1 sequence (Q2M3M2 8-681 I269M): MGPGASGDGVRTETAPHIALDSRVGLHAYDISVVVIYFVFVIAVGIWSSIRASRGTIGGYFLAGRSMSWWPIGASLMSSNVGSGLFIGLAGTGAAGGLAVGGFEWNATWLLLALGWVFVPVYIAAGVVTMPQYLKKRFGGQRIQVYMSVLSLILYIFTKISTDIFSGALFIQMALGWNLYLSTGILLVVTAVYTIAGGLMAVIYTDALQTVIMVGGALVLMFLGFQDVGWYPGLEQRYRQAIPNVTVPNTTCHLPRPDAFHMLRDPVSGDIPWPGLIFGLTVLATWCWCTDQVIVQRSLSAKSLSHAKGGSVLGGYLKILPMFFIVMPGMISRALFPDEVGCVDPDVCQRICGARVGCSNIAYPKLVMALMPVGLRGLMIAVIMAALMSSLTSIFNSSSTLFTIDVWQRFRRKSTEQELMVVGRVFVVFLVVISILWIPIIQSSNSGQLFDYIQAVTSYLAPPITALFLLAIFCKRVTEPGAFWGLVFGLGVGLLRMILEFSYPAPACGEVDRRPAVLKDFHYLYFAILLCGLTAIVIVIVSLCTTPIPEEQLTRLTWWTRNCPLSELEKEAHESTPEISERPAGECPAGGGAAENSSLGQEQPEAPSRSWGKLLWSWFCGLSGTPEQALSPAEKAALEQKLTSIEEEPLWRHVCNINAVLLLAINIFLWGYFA
Method: Each cDNA of human SGLT1 (NCBI Accession NM_000343) and SGLT2 (NCBI Accession NM_003041) was amplified by PCR from Clontech MTC panel kidney cDNA library, and subcloned into the expression vector for animal cells, pME18S between EcoRI and SpeI sites to prepare pME18S-hSGLT1 and pME18S-hSGLT2. CHO cells (1×10^6 cells) were co-transfected with each 5 μg of plasmids pME18S, pMEI 8S-SGLT homolog, pMEI 8S-hSGLT1, and pME18S-hSGLT2, and the expression vector for animal cells, pRSVneo […] according to the LipofectAMINE PLUS method (GIBCOBRL). These cells were cultured in DMEM containing G418 (500 μg/ml) and 10% FBS for 2 weeks to select the drug-resistant clones.
Total RNAs were extracted from respective G418-resistant CHO cells using RNAeasy Mini Kit (Quiagen). The expression of the SGLT homolog, hSGLT1 and hSGLT2 was quantified using TaqMan Gold RT-PCR Kit (PE Biosystems) according to the TaqMan PCR method to select CHO cells expressing each gene.
Experimental incorporation of α-methyl glucose into the CHO cell expressing the SGLT homolog, the CHO cell expressing hSGLT1, the CHO cell expressing hSGLT2, and the CHO cell having pME18S was carried out according to the method described in Am. J. Physiol. 270:G833-G843 (1996) and J. Clin. Invest. 93:397-404, 1994. […] The radioactivity of ^14C incorporated into the cells was counted with 100 μl of a liquid scintillator added per well.

mouse SGLT homolog = biological target: T2, mouse SGLT homolog (Mus musculus, UniProt Q8VDT1); assay: α-methyl glucose uptake in COS7 cell expressing the mouse SGLT homolog; conditions: COS7 cells, NaCl + 100 μM or 1 mM phlorizin, one-hour incubation, FIG. 6
T2 construct: expressed in transfected cells; host or cells: COS7 cells, transient, FuGENE6
T2 sequence (Q8VDT1 8-685): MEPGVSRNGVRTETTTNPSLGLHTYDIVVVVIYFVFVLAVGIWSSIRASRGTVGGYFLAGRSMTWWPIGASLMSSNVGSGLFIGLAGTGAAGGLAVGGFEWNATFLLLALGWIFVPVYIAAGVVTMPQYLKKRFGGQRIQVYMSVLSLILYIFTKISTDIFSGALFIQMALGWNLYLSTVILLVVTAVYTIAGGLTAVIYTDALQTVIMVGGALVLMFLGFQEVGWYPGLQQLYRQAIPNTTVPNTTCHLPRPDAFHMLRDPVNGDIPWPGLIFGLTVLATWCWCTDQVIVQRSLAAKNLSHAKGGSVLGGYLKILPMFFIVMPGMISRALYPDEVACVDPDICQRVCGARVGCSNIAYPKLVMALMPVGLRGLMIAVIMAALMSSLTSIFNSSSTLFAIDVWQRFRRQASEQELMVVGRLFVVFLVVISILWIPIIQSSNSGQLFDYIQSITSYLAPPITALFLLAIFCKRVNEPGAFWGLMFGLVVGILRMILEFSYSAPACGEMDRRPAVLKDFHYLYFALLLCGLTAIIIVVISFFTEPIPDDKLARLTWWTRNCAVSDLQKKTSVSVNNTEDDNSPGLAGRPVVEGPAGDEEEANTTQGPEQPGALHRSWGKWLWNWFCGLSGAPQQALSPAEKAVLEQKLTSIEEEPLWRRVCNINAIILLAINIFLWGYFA
Method: The cDNA of human SGLT1 (NCBI Accession NM_000343) was amplified by PCR from Clontech MTC panel kidney cDNA library, and subcloned into the expression vector for animal cells, pME18S between EcoRI and SpeI sites to prepare pME18S-hSGLT1. COS7 cells (5×10^5 cells) were transfected with each 1 μg of plasmids pME18S, pME18S-hSGLT1, and pME18S-mouse-SGLT-homolog according to the FuGENE6 method (Roche).
(§1) Experimental incorporation of α-methyl glucose into the COS7 cell having pMEI 8S, the COS7 cell expressing hSGLT1, and the COS7 cell expressing the mouse SGLT homolog was carried out according to the method described in Am. J. Physiol. 270:G833-G843 (1996) and J. Clin. Invest. 93:397-404,1994. These cells were plated on a 96-well plate in a cell density of 3×10^4 cells/well and in a volume of 100 μl of DMEM containing 10% FBS per well, and cultured overnight at 37° C. The cells were washed 3 times with 150 μl of a buffer solution (125 mM KCl, 1.2 mM KH2PO4, 2.5 mM CaCl2, 1.2 mM MgSO4, 4 mM Glutamine, 10 mM HEPES (pH 7.2), 0.1 mg/ml BSA), and cultured for an hour in the same buffer solution to remove the rest of glucose. […] The radioactivity of ^14C incorporated into the cells was counted with 100 μl of a liquid scintillator added per well.

rat SGLT homolog = assay: α-methyl glucose uptake in COS7 cell expressing the rat SGLT homolog; conditions: COS7 cells, NaCl + 100 μM or 1 mM phlorizin, one-hour incubation, FIG. 9
Method: The cDNA of human SGLT1 (NCBI Accession NM_000343) was amplified by PCR from Clontech MTC panel kidney cDNA library, and subcloned into the expression vector for animal cells, pME18S between EcoRI and SpeI sites to prepare pME18S-hSGLT1. COS7 cells (5×10^5 cells) were transfected with each 1 μg of plasmids pME18S, pME18S-hSGLT1, and pME18S-rat-SGLT-homolog according to the FuGENE6 method (Roche).
as §1, with “pME18S,” for “pMEI 8S,”, “rat” for “mouse”, “93:397-404, 1994.” for “93:397-404,1994.”

human SGLT homolog [2] = biological target: T1, human SGLT homolog; assay: α-methyl glucose uptake in COS7 cells carrying pME18S-human-SGLT-homolog (pTB2193); conditions: NaCl + 100 μM or 1 mM phlorizin, one-hour incubation, FIG. 12
Method: Each 1 μg of the expression vectors for animal cells: pME18S, pME18S-hSGLT2, pME18S-human-SGLT-homolog (pTB2193), pME18S-human-SGLT-homolog-SNP-C1 (pTB2251), pME18S-human-SGLT-homolog-SNP-C2 (pTB2252) and pME18S-human-SGLT-homolog-SNP-C3 (pTB2253), and 3 μl of FuGENE 6 (Roche) were added to Opti-MEM (Gibco-BRL) 100 μl for 15 min at room temperature. These mixtures were then added to COS7 cells (1×10^6 cells/1 ml of DMEM containing 10% FBS/well in 6-well plate) so that each gene was introduced into the cells.
Experimental incorporation of α-methyl glucose into the COS7 cells carrying pME 18S, pME18S-hSGLT2, pME 18S-human-SGLT-homolog (pTB2193), pME18S-human-SGLT-homolog-SNP-C 1 (pTB2251), pME18S-human-SGLT-homolog-SNP-C2 (pTB2252), and pME18S-human-SGLT-homolog-SNP-C3 (pTB2253) was carried out according to the method described in Am. J. Physiol. 270:G833-G843 (1996) and J. Clin. Invest. 93:397-404 (1994).
These gene-transfected cells were cultured for a day, and then plated on a 96-well plate in a cell density of 3×10^4 cells/well and in a volume of 100 μl of DMEM containing 10% FBS per well, and further cultured overnight at 37° C. […] The radioactivity of ^14C incorporated into the cells was counted with 100 μl of a liquid scintillator added per well.

O=C(CCc1ccc(O)cc1)c1c(O)cc(O)cc1O[C@@H]1O[C@H](CO)[C@@H](O)[C@H](O)[C@H]1O [phlorizin]
inhibited: inhibition of Na-dependent α-methyl glucose uptake activity (human SGLT homolog [1]) | inhibition of Na+-dependent α-methyl glucose uptake activity (mouse SGLT homolog) | inhibition of Na+-dependent α-methyl glucose uptake activity (rat SGLT homolog) | inhibition of NaCl-dependent glucose uptake activity (human SGLT homolog [2])
